Key:
Adenosine receptor A2b [1] = molecular target: T1, Adenosine receptor A2b (Homo sapiens, UniProt P29275); test: Binding affinity to adenosine A2B receptor (unknown origin)
T1 sequence (P29275 whole entry): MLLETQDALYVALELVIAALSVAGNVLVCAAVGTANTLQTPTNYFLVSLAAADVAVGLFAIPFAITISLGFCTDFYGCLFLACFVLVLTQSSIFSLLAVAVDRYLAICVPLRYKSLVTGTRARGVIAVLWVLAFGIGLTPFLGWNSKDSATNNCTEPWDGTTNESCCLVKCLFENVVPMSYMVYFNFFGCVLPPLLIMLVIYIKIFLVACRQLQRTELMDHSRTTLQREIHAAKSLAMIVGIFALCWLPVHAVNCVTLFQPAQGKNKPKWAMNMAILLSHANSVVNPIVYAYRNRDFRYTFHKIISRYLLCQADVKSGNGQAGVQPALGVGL

Adenosine receptor A2a [2] = molecular target: T2, Adenosine receptor A2a (Homo sapiens, UniProt P29274); test: Binding affinity to adenosine A2A receptor (unknown origin)
T2 sequence (P29274 whole entry): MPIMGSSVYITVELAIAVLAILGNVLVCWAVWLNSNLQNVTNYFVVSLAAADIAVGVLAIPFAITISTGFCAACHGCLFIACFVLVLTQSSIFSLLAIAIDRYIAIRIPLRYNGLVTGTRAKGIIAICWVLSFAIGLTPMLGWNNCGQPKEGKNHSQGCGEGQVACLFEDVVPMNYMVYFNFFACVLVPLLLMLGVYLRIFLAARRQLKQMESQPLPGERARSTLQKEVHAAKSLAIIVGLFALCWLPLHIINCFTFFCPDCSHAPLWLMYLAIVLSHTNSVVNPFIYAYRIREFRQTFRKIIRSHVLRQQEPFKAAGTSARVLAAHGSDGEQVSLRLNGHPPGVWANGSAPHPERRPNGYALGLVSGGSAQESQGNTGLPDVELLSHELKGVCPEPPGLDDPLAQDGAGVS

Adenosine receptor A1 [3] = molecular target: T3, Adenosine receptor A1 (Homo sapiens, UniProt P30542); test: Binding affinity to adenosine A1 receptor (unknown origin)
T3 sequence (P30542 whole entry): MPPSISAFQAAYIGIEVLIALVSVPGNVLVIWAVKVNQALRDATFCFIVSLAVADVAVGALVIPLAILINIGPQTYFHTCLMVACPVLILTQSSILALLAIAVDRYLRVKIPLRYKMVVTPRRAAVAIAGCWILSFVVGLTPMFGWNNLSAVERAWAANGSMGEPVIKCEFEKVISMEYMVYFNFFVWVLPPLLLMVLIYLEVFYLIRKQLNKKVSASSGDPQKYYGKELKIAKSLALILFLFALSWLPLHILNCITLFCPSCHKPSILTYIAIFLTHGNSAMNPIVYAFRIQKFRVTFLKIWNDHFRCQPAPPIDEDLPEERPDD

Adenosine receptor A3 [4] = molecular target: T4, Adenosine receptor A3 (Homo sapiens, UniProt P0DMS8); test: Binding affinity to adenosine A3 receptor (unknown origin)
T4 sequence (P0DMS8 whole entry, looked up): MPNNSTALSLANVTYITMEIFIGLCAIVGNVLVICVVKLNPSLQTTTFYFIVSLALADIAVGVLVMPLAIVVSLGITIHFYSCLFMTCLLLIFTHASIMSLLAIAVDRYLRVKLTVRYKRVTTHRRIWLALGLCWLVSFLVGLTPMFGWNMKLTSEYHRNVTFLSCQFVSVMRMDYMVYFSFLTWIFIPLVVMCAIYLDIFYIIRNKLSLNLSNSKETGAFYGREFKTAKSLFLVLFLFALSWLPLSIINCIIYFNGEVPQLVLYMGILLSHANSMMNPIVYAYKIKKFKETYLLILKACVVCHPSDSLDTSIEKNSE

Adenosine receptor A3 [5] = molecular target: T4, Adenosine receptor A3; test: Displacement of [3H]HEMADO from human adenosine A3 receptor expressed in CHO cells; format: cell-based
Homo sapiens = species on record: Homo sapiens; test: Selectivity ratio of Ki for adenosine A1 receptor (unknown origin) to Ki for adenosine A2A receptor (unknown origin)
Adenosine receptor A1 [6] = molecular target: T3, Adenosine receptor A1; test: Displacement of [3H]CCPA from human adenosine A1 receptor expressed in CHO cells; format: cell-based
Adenosine receptor A2b [7] = molecular target: T1, Adenosine receptor A2b; test: Antagonist activity at human adenosine A2B receptor expressed in CHO cells assessed as inhibition of NECA-stimulated adenylyl cyclase activity; format: functional, cell-based
Adenosine receptor A2a [8] = molecular target: T2, Adenosine receptor A2a; test: Displacement of [3H]NECA from human adenosine A2A receptor expressed in CHO cells; format: cell-based

Ki (Adenosine receptor A2b [1]) [nM] | Ki (Adenosine receptor A2a [2]) [nM] | Ki (Adenosine receptor A1 [3]) [nM] | Ki (Adenosine receptor A3 [4]) [nM] | Ki (Adenosine receptor A3 [5]) [nM] | Ratio Ki (Homo sapiens) | Ki (Adenosine receptor A1 [6]) [nM] | Ki (Adenosine receptor A2b [7]) [nM] | Ki (Adenosine receptor A2a [8]) [nM] | SMILES
8130 | 1340 | 8730 | 10800 | – | – | – | – | – | CCn1cnc2c(NCCc3ccccc3)ncnc21
– | – | – | – | > 100000 | – | – | – | – | CCCn1cnc2c(N)ncnc21
– | – | – | – | – | 6 | – | – | – | CCn1c(-c2ccco2)nc2c(N)ncnc21
– | – | – | – | 650 | – | 358 | 1740 | 36 | CCCn1c(Br)nc2c(N)nc(NCc3ccccc3)nc21
– | – | – | – | 2520 | – | 1940 | 3190 | 503 | CCCn1c(Br)nc2c(NCCc3ccccc3)ncnc21
– | – | – | – | 811 | – | 2440 | 9280 | 547 | CCCn1c(-c2ccco2)nc2c(NCCc3ccccc3)ncnc21
– | – | – | – | 56 | – | 80 | 2030 | 14 | CCCn1c(-c2ccco2)nc2c(N)nc(NCCc3ccccc3)nc21
– | – | – | – | 1950 | – | 583 | 6300 | 284 | CCCn1c(Br)nc2c(N)nc(NCCCc3ccccc3)nc21
– | – | – | – | 12600 | – | 3640 | > 30000 | 9110 | CCCn1cnc2c(N)nc(NCCCc3ccccc3)nc21
– | – | – | – | 959 | – | 378 | 1870 | 181 | CCCn1c(-c2ccco2)nc2c(NCCCc3ccccc3)ncnc21
– | – | – | – | 5880 | – | 2330 | 9250 | 738 | CCCn1cnc2c(N)nc(NCCc3ccccc3)nc21
– | – | – | – | 12200 | – | 2670 | 1760 | 1020 | CCCn1c(Br)nc2c(NCCCc3ccccc3)ncnc21
– | – | – | – | 30000 | – | 18600 | > 30000 | 13000 | CCCn1cnc2c(NCCCc3ccccc3)ncnc21
– | – | – | – | 11100 | – | 5620 | 7490 | 1180 | CCCn1c(Br)nc2c(NCc3ccccc3)ncnc21
– | – | – | – | > 100000 | – | – | – | – | CCCn1c(Br)nc2c(N)ncnc21
– | – | – | – | 29100 | – | 42800 | > 30000 | 22600 | CCCn1cnc2c(NCc3ccccc3)ncnc21
– | – | – | – | 402 | – | 546 | 1760 | 80 | CCCn1c(-c2ccco2)nc2c(NCc3ccccc3)ncnc21
2410 | 150 | 330 | 3200 | – | – | – | – | – | CCn1cnc2c(N)nc(NCCc3ccccc3)nc21
– | – | – | – | 29 | – | 138 | 4610 | 6.6 | CCCn1c(-c2ccco2)nc2c(N)nc(NCc3ccccc3)nc21
– | – | – | – | 266 | – | 230 | 8240 | 113 | CCCn1c(-c2ccco2)nc2c(N)nc(NCCCc3ccccc3)nc21
– | – | – | – | 16900 | – | 19200 | > 30000 | 12000 | CCCn1cnc2c(NCCc3ccccc3)ncnc21
– | – | – | – | 5840 | – | 7600 | > 30000 | 1400 | CCCn1cnc2c(N)nc(NCc3ccccc3)nc21
– | – | – | – | 1160 | – | 373 | 1490 | 27 | CCCn1c(Br)nc2c(N)nc(NCCc3ccccc3)nc21

From ChEMBL document CHEMBL3739359, “New substituted 9-propyladenine derivatives as A2Aadenosine receptor antagonists” (Medchemcomm, 2015)
